IC50 data for 24 compounds are collected here from patent publication US20210323977A1, “PYRROLIDINYL AMIDE COMPOUNDS FOR THE TREATMENT OF AUTOIMMUNE DISEASE” (Hoffmann-La Roche Inc., priority 2018, published 2021).

The target in the test is T1, human TLR9 (Homo sapiens, UniProt Q9NR96).
T1 sequence (Q9NR96 26-1032): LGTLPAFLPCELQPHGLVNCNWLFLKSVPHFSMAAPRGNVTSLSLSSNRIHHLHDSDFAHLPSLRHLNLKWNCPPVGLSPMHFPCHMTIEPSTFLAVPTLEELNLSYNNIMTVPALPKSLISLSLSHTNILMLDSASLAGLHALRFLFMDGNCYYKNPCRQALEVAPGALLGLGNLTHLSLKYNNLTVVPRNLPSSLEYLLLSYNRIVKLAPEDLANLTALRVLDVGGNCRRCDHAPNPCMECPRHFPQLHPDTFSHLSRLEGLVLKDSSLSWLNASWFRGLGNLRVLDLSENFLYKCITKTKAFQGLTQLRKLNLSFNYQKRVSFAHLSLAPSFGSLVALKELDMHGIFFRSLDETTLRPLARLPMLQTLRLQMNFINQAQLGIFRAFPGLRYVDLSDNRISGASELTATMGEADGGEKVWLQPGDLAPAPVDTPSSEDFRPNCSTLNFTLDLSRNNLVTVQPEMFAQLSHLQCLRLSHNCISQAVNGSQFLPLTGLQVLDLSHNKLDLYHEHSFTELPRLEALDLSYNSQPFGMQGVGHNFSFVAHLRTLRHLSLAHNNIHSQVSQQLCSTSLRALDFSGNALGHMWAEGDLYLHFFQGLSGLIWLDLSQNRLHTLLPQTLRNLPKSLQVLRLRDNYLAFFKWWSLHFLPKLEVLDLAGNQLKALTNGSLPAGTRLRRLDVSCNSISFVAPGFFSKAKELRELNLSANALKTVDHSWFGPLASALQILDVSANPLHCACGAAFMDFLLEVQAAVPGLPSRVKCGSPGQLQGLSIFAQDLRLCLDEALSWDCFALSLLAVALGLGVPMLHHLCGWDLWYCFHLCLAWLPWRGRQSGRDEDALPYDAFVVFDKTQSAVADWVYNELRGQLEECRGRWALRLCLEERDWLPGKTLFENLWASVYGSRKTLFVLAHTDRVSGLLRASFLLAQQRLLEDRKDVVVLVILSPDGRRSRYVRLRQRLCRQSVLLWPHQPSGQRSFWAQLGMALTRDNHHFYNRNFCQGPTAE
Kind of test: HEK293-Blue-hTLR-9 cells assay. In kind it is cell-based. Particulars: HEK293-Blue-hTLR9 cells, SEAP reporter, ODN2006 stimulation, 20 hrs. The source says:
HEK293-Blue-hTLR-9 Cells Assay:
A stable HEK293-Blue-hTLR-9 cell line was purchased from InvivoGen (Cat. #: hkb-htlh9, San Diego, Calif., USA). These cells were originally designed for studying the stimulation of human TLR9 by monitoring the activation of NF-κB. A SEAP (secreted embryonic alkaline phosphatase) reporter gene was placed under the control of the IFN-β minimal promoter fused to five NF-κB and AP-1-binding sites. The SEAP was induced by activating NF-κB and AP-1 via stimulating HEK-Blue hTLR9 cells with TLR9 ligands. Therefore the reporter expression was declined by TLR9 antagonist under the stimulation of a ligand, such as ODN2006 (Cat. #: tlrl-2006-1, Invivogen, San Diego, Calif., USA), for incubation of 20 hrs. The cell culture supernatant SEAP reporter activity was determined using QUANTI-Blue™ kit (Cat. #: rep-qb1, Invivogen, San Diego, Calif., USA) at a wavelength of 640 nm, a detection medium that turns purple or blue in the presence of alkaline phosphatase.
HEK293-Blue-hTLR9 cells were incubated at a density of 250,000-450,000 cells/mL in a volume of 170 μL in a 96-well plate in Dulbecco's Modified Eagle's medium (DMEM) containing 4.5 g/L glucose, 50 U/mL penicillin, […], […], 2 mM L-glutamine, 10% (v/v) heat-inactivated fetal bovine serum with addition of 20 sL test compound in a serial dilution in the presence of final DMSO at 1% and 10 sL of 20 uM ODN2006 in above DMEM, perform incubation under 37° C. in a CO2 incubator for 20 hrs. Then 20 sL of the supernatant from each well was incubated with 180 μL Quanti-blue substrate solution at 37° C. for 2 hrs and the absorbance was read at 620-655 nm using a spectrophotometer. The signalling pathway that TLR9 activation leads to downstream NF-x3B activation has been widely accepted, and therefore similar reporter assay was modified for evaluating TLR9 antagonist.

Molecules are shown by their SMILES.

`N#Cc1ccc(N2C[C@@H](C(F)(F)F)[C@H](C(=O)N[C@H]3CNC[C@H]3F)C2)c2cccnc12` [Example 47, Trans-1-(8-cyano-5-quinolyl)-N-[(3S,4R)-4-fluoropyrrolidin-3-yl]-4-(trifluoromethyl)pyrrolidine-3-carboxamide] yielded an IC50 of 23.1 µM.
Compound `O=C(NC1CC2CNCC2C1)C1CN(c2ccc(C(F)(F)F)c3nccnc23)CC12CC2` (stereo not drawn) [Example 21, N-(1,2,3,3a,4,5,6,6a-octahydrocyclopenta[c]pyrrol-5-yl)-5-[8-(trifluoromethyl)quinoxalin-5-yl]-5-azaspiro[2.4]heptane-7-carboxamide] displayed an IC50 of 14 µM.
Compound `N[C@@H]1CCC[C@H](NC(=O)C2CN(c3ccc(C(F)(F)F)c4nccnc34)CC23CC3)C1` (relative stereo) [Example 43, Cis-N-(3-aminocyclohexyl)-5-[8-(trifluoromethyl)quinoxalin-5-yl]-5-azaspiro[2.4]heptane-7-carboxamide] had an IC50 of 17.9 µM.
For `C[C@H]1CN(c2ccc([N+](=O)[O-])c3ncccc23)C[C@@H]1C(=O)NC1CCN(C)CC1` [Example 27, (3R,4R)-4-Methyl-N-(1-methyl-4-piperidyl)-1-(8-nitro-5-quinolyl)pyrrolidine-3-carboxamide], the IC50 was found to be 4.5 µM.
As to `C[C@H]1CN(c2ccc(C#N)c3nccnc23)C[C@@H]1C(=O)NC1CCN(C)CC1` [Example 3, (3R,4R)-1-(8-cyanoquinoxalin-5-yl)-4-methyl-N-(1-methyl-4-piperidyl)pyrrolidine-3-carboxamide], the IC50 turned out to be 5.7 µM.
`C[C@H]1CN(c2ccc(C#N)c3ncccc23)C[C@@H]1C(=O)NC1CCN(C)CC1` [Example 16, (3R,4R)-1-(8-cyano-5-quinolyl)-4-methyl-N-(1-methyl-4-piperidyl)pyrrolidine-3-carboxamide]: the IC50 amounted to 4.6 µM.
Consider `N[C@H]1CC[C@@H](NC(=O)C2CN(c3ccc(C(F)(F)F)c4nccnc34)CC23CC3)CC1` (stereo partly drawn) [Example 39, N-(4-Aminocyclohexyl)-5-[8-(trifluoromethyl)quinoxalin-5-yl]-5-azaspiro[2.4]heptane-7-carboxamide], for which the IC50 worked out at 21.1 µM.
On to `CN1CCC(NC(=O)[C@H]2CN(c3ccc(C#N)c4ncccc34)C[C@@H]2C(F)(F)F)CC1` [Example 4, (3R,4R)-1-(8-cyano-5-quinolyl)-N-(1-methyl-4-piperidyl)-4-(trifluoromethyl)pyrrolidine-3-carboxamide], for which the IC50 was determined as 9.9 µM.
In turn, `C[C@@H]1CN(c2ccc(C#N)c3ncccc23)C[C@H]1C(=O)N1CCC2(CCNCC2)CC1` (relative stereo) [Example 32, Trans-5-[3-(3,9-diazaspiro[5.5]undecane-3-carbonyl)-4-methyl-pyrrolidin-1-yl]quinoline-8-carbonitrile] returned a half-inhibitory concentration (IC50) of 2.4 µM.
As for `CN1CC(NC(=O)C2CN(c3ccc(C(F)(F)F)c4nccnc34)CC23CC3)C2(CC2)C1` (stereo not drawn) [Example 20, N-(5-methyl-5-azaspiro[2.4]heptan-7-yl)-5-[8-(trifluoromethyl)quinoxalin-5-yl]-5-azaspiro[2.4]heptane-7-carboxamide], the midpoint of inhibition, the IC50, lay at 13.1 µM.
For `CN1CCC(NC(=O)[C@@H]2CN(c3ccc(C#N)c4ncccc34)C[C@H]2C(F)(F)F)CC1` (relative stereo) [Example 17, Trans-1-(8-cyano-5-quinolyl)-N-(1-methyl-4-piperidyl)-4-(trifluoromethyl)pyrrolidine-3-carboxamide], the IC50 amounted to 1 µM.
The compound `O=C(NC1CC2CCCC(C1)N2)C1CN(c2ccc(C(F)(F)F)c3nccnc23)CC12CC2` (stereo not drawn) [Example 10, N-(9-azabicyclo[3.3.1]nonan-3-yl)-5-[8-(trifluoromethyl)quinoxalin-5-yl]-5-azaspiro[2.4]heptane-7-carboxamide] registered an IC50 of 9.5 µM.
The compound `N#Cc1ccc(N2CC(C(=O)NC[C@@H]3CNCCO3)C3(CC3)C2)c2nccnc12` (single isomer, unassigned) [Example 71A] came in with an IC50 of 3.8 µM.
The result for `O=C(NC1CC2CNCC(C2)C1)C1CN(c2ccc(C(F)(F)F)c3nccnc23)CC12CC2` (stereo not drawn) [Example 15, N-(3-azabicyclo[3.3.1]nonan-7-yl)-5-[8-(trifluoromethyl)quinoxalin-5-yl]-5-azaspiro[2.4]heptane-7-carboxamide] reads 7.3 µM; that for `O=C(NC1C2CCC1CNC2)C1CN(c2ccc(C(F)(F)F)c3nccnc23)CC12CC2` (stereo not drawn) [Example 12, N-(3-azabicyclo[3.2.1]octan-8-yl)-5-[8-(trifluoromethyl)quinoxalin-5-yl]-5-azaspiro[2.4]heptane-7-carboxamide], 1 µM.
Take `C[C@@H]1CN(c2ccc(C#N)c3ncccc23)C[C@H]1C(=O)N1CCC2(CCNC2)C1` (relative stereo) [Example 53, Trans-5-[3-(2,7-diazaspiro[4.4]nonane-2-carbonyl)-4-methyl-pyrrolidin-1-yl]quinoline-8-carbonitrile]: half-maximal inhibition (IC50) was put at 2.6 µM.
`CC[C@@H]1CN(c2ccc(C#N)c3ncccc23)C[C@H]1C(=O)NC1CCN(C)CC1` (relative stereo) [Example 29, Trans-1-(8-cyano-5-quinolyl)-4-ethyl-N-(1-methyl-4-piperidyl)pyrrolidine-3-carboxamide] displayed an IC50 of 6.9 µM.
`O=C(NC1CC2COCC(C1)N2)C1CN(c2ccc(C(F)(F)F)c3nccnc23)CC12CC2` (stereo not drawn) [Example 6, N-(3-oxa-9-azabicyclo[3.3.1]nonan-7-yl)-5-[8-(trifluoromethyl)quinoxalin-5-yl]-5-azaspiro[2.4]heptane-7-carboxamide] showed a half-maximal inhibitory concentration (IC50) of 1.4 µM.
The compound `N#Cc1ccc(N2C[C@H](C(=O)NC3CCN(C4CCNCC4)CC3)[C@@H](C(F)(F)F)C2)c2nccnc12` [Example 35, (3R,4R)-1-(8-Cyanoquinoxalin-5-yl)-N-[1-(4-piperidyl)-4-piperidyl]-4-(trifluoromethyl)pyrrolidine-3-carboxamide] registered an IC50 of 4.3 µM.
`CN1CCCC(CNC(=O)C2CN(c3ccc(C#N)c4ncccc34)CC23CC3)C1` (stereo not drawn) [Example 51, 5-(8-Cyano-5-quinolyl)-N-[(1-methyl-3-piperidyl)methyl]-5-azaspiro[2.4]heptane-7-carboxamide] returned an IC50 of 2 µM.
Compound `Cc1ccc(N2C[C@H](C(=O)NC3CCN(C)CC3)[C@@H](C)C2)c2nccnc12` [Example 33, (3R,4R)-4-Methyl-N-(1-methyl-4-piperidyl)-1-(8-methylquinoxalin-5-yl)pyrrolidine-3-carboxamide] came in with an IC50 of 30.2 µM.
Compound `CN1CCC(NC(=O)C2CN(c3ccc(C#N)c4nccnc34)CC23CC3)CC1` (single isomer, unassigned) [Example 7A, 5-(8-Cyanoquinoxalin-5-yl)-N-(1-methyl-4-piperidyl)-5-azaspiro[2.4]heptane-7-carboxamide] returned an IC50 of 3.2 µM.
Regarding `CN1CCC(NC(=O)C2CN(c3ccc(C#N)c4ncccc34)CC23CC3)CC1` (single isomer, unassigned) [Example 41A, 5-(8-Cyano-5-quinolyl)-N-(1-methyl-4-piperidyl)-5-azaspiro[2.4]heptane-7-carboxamide], the half-maximal inhibitory concentration (IC50) stood at 4.5 µM.
`C[C@H]1CN(c2ccc(C#N)c3nccnc23)C[C@@H]1C(=O)NC1CCN(C2CCNCC2)CC1` [Example 60, (3R,4R)-1-(8-cyanoquinoxalin-5-yl)-4-methyl-N-[1-(4-piperidyl)-4-piperidyl]pyrrolidine-3-carboxamide] yielded an IC50 of 3.2 µM.
